Assay results as given in ChEMBL document CHEMBL1201862, “PubChem BioAssay data set” (2004).
The source made the active and inactive calls.

Legend:
Assay type in all cases: functional
CHO-K1 = test: (§1) Counterscreen for antagonists of the orexin 1 receptor (OX1R; HCRTR1): Homogeneous time resolved fluorescence (HTRF)-based cell-based dose response assay to identify antagonists of the parental CHO-K1 cell line. [Related pubchem assays (depositor defined):AID434989, AID435008, AID463079, AID485270, AID492963, AID492964, AID492965, AID493232, AID504699, AID504701]; conditions: Cricetulus griseus
[1] = as §1, with “Fluorescence-based” for “Homogeneous time resolved fluorescence (HTRF)-based”, “cell-based high throughput” for “cell-based”, “CHO” for “CHO-K1”
[2] = target: T1, Orexin/Hypocretin receptor type 1 (Homo sapiens, UniProt O43613); test: Homogeneous Time Resolved Fluorescence (HTRF)-based cell-based high throughput dose response assay for antagonists of the orexin 1 receptor (OX1R; HCRTR1). [Related pubchem assays (depositor defined):AID434989, AID435008, AID463079, AID485270, AID492963, AID492964, AID492965, AID493232, AID504717, AID504718]
T1 sequence (O43613 whole entry): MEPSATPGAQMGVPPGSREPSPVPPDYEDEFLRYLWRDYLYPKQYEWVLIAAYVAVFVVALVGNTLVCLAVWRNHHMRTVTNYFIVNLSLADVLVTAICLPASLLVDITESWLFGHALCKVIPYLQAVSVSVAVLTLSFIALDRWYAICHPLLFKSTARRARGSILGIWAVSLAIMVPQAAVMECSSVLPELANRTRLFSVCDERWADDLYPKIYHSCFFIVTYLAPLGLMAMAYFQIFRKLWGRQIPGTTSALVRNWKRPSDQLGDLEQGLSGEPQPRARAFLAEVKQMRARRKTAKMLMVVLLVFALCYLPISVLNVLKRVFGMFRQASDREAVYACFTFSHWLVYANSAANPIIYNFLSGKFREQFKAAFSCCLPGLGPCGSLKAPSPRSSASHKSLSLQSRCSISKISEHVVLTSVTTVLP

[3] = target: T1, Orexin/Hypocretin receptor type 1; test: Fluorescence-based cell-based high throughput dose response assay for antagonists of the orexin 1 receptor (OX1R; HCRTR1). [Related pubchem assays (depositor defined):AID434989, AID435008, AID463079, AID485270, AID492963, AID492964, AID492965, AID493232, AID504717, AID504718]
[4] = target: T2, G-protein coupled receptor 35 (Homo sapiens, UniProt Q9HC97); test: SAR analysis of Agonists of the GPR35 Receptor using an Image-Based Assay - Set 4. [Related pubchem assays (depositor defined):AID2013, AID2026]
Cannabinoid receptor 1 [5] = target: T3, Cannabinoid receptor 1 (Homo sapiens, UniProt P21554); test: SAR analysis of agonists of the Cannabinoid Receptor 1 using an Image-Based Assay - Set 4. [Related pubchem assays (depositor defined):AID2013, AID2026]
[6] = target: T2, G-protein coupled receptor 35; test: SAR analysis of Antagonists of the GPR35 Receptor using an Image-Based Assay - Set 6. [Related pubchem assays (depositor defined):AID2013, AID2026]
Cannabinoid receptor 1 [7] = target: T3, Cannabinoid receptor 1; test: SAR analysis of antagonists of the Cannabinoid Receptor 1 using an Image-Based Assay - Set 4. [Related pubchem assays (depositor defined):AID2013, AID2026]
[8] = target: G-protein coupled receptor 55 (Homo sapiens, UniProt Q9Y2T6); test: SAR Analysis of Selective Antagonists of GPR55 using an Image-Based Assay - Set 4. [Related pubchem assays (depositor defined):AID2013, AID2026];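 note: antagonism of response to 5 µM lysophosphatidylinositol agonist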
Cannabinoid receptor 2 [9] = target: T4, Cannabinoid receptor 2 (Homo sapiens, UniProt P34972); test: SAR analysis of antagonists of the Cannabinoid Receptor 2 using an Image-Based Assay - Set 3. [Related pubchem assays (depositor defined):AID2013, AID2026]
Cannabinoid receptor 2 [10] = target: T4, Cannabinoid receptor 2; test: SAR analysis of agonists of the Cannabinoid Receptor 2 using an Image-Based Assay - Set 3. [Related pubchem assays (depositor defined):AID2013, AID2026]
[11] = target: Voltage-dependent T-type calcium channel subunit alpha-1H (Homo sapiens, UniProt O95180); test: Cav3.2 T-type channel inhibitors, synthesized analogs, SAR follow-up, cell-based, synthetic library set 2, HEK293 HH8, Fluo-4 (AID 493023)
Voltage-dependent T-type calcium channel subunit alpha-1H, sequence (O95180 whole entry): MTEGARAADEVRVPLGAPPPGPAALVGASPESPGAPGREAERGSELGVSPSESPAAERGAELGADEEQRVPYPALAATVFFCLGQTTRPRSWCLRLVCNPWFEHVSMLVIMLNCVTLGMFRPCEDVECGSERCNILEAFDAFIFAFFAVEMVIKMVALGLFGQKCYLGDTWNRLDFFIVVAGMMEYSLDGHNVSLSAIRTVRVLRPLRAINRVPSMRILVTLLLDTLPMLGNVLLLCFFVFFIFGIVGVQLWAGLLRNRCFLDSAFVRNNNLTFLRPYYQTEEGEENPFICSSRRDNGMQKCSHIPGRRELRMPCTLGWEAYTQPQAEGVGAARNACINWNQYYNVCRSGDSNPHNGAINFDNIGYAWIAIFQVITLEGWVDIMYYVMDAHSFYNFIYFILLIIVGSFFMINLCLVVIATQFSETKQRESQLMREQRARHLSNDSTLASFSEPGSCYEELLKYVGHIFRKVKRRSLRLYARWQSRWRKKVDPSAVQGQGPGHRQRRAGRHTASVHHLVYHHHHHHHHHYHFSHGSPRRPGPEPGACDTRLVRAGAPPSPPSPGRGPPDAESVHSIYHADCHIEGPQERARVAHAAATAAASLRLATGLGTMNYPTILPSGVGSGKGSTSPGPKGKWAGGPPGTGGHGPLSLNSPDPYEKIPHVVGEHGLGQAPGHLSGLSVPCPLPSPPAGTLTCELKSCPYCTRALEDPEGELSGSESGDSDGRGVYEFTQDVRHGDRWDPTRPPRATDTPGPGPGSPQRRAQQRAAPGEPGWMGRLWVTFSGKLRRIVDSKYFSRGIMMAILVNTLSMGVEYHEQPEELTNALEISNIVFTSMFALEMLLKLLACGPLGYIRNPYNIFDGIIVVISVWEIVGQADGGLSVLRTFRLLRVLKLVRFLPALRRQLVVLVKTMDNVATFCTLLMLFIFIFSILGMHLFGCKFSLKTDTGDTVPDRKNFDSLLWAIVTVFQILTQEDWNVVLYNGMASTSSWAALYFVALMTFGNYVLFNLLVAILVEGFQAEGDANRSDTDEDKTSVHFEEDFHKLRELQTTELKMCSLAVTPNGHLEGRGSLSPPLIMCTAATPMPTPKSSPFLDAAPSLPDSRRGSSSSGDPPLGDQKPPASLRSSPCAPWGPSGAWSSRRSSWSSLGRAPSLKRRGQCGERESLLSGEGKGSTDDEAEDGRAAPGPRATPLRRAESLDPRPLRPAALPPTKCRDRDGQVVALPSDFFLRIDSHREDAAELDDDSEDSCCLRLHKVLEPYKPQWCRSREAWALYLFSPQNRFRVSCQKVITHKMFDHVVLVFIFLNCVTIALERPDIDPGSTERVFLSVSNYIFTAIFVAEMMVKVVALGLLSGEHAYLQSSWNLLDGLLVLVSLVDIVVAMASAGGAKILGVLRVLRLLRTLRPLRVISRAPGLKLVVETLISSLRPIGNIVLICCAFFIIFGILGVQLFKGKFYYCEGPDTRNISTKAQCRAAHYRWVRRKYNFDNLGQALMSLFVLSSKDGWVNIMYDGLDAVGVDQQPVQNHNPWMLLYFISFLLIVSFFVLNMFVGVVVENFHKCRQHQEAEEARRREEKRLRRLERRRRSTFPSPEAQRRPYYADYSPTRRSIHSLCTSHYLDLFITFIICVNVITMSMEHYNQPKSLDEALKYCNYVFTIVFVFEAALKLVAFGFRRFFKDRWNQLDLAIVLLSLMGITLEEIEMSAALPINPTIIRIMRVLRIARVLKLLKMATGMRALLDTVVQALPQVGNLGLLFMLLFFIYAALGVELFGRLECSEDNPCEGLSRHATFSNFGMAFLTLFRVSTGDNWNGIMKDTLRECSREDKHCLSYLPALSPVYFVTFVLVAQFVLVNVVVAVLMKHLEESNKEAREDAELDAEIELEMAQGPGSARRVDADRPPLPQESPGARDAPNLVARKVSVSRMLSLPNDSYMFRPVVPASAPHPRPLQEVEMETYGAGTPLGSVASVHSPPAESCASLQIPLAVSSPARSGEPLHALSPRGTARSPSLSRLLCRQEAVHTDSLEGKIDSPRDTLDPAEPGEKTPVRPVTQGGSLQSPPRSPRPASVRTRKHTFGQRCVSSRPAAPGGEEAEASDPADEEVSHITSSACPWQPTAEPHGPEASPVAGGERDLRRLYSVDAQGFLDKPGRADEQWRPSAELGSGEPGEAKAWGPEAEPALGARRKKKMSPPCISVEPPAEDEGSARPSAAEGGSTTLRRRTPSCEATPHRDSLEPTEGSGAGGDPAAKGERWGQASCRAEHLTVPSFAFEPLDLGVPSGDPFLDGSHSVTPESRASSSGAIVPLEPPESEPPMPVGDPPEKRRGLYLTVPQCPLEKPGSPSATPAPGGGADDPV

T2 sequence (Q9HC97 whole entry): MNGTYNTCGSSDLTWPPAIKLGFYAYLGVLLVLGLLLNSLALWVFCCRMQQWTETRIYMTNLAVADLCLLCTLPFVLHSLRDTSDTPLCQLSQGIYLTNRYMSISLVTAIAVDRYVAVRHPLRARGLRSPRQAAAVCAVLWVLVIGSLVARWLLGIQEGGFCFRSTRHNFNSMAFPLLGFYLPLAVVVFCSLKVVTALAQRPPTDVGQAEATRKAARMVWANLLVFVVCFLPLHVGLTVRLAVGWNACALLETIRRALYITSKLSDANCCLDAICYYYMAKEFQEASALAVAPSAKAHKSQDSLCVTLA
T4 sequence (P34972 whole entry): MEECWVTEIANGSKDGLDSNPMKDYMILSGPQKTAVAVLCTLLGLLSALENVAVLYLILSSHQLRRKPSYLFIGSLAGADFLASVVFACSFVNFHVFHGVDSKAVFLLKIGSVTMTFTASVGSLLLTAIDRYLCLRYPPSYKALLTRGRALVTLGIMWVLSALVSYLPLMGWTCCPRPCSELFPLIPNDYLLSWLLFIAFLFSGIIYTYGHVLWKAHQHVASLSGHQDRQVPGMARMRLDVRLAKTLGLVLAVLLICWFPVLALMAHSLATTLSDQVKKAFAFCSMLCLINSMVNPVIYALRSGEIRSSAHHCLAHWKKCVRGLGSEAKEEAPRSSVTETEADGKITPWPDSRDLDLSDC
T3 sequence (P21554 whole entry): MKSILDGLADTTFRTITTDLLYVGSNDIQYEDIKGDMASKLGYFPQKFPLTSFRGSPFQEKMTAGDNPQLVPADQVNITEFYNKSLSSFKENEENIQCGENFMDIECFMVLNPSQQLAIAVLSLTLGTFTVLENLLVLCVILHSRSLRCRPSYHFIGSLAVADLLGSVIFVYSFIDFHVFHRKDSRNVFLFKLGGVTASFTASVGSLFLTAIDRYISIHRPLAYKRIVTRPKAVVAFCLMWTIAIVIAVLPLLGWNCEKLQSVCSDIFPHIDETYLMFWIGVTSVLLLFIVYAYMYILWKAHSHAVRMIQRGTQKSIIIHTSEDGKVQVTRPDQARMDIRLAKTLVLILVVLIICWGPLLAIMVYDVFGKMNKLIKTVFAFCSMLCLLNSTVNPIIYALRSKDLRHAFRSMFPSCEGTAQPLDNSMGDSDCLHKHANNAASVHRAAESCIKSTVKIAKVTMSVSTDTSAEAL
G-protein coupled receptor 55, sequence (Q9Y2T6 whole entry): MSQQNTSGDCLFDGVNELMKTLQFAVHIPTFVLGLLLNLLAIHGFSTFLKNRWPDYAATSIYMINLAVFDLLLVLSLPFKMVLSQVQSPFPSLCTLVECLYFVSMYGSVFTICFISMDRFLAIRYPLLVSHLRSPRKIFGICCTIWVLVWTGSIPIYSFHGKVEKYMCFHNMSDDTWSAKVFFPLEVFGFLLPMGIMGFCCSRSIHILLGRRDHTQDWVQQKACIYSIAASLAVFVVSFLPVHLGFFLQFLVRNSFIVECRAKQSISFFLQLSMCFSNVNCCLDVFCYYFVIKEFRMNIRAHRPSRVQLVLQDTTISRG

Row | EC50 [4] | EC50 (Cannabinoid receptor 1 [5]) | IC50 [6] | IC50 (Cannabinoid receptor 1 [7]) | IC50 [8] | IC50 (Cannabinoid receptor 2 [9]) | EC50 (Cannabinoid receptor 2 [10]) | EC50 [11] | SMILES | IC50 (CHO-K1) | IC50 [1] | IC50 [2] | IC50 [3]
1 |  |  |  |  |  |  |  |  | Oc1cc(/C=C/c2c(F)cccc2Cl)nc2ccccc12 | > 66.2 µM (inactive) | > 49.7 µM (inactive) | 3.14 µM (active) | 9.6 µM (active)
2 | > 32 µM (inactive) | > 32 µM (inactive) | > 32 µM (inactive) | 1.68 µM (active) | 21.5 µM (inactive) | > 9.18 µM (active) | 24.1 µM (inactive) |  | Cc1nc(N2CCN(C(=O)c3ccccc3)CC2)c2c3c(sc2n1)CC(C)CC3 (centres undefined) |  |  |  | 
3 | > 32 µM (inactive) | > 32 µM (inactive) | > 32 µM (inactive) | 13.3 µM (inactive) | > 32 µM (inactive) | > 32 µM (inactive) | > 32 µM (inactive) |  | Cc1nc(N2CCN(C(=O)c3ccncc3)CC2)c2c3c(sc2n1)CC(C)CC3 (centres undefined) |  |  |  | 
4 |  |  |  |  |  |  |  | 10 µM (active) | O=C(COc1ccccc1Cl)N[C@H]1CCCN(Cc2ccccc2)C1 |  |  |  | 
